Measured values as given in ChEMBL document CHEMBL6153155, “Novel Cyclohexyl Amido Acid Antagonists of Lysophosphatidic Acid Type 1 Receptor for the Treatment of Pulmonary Fibrosis” (ACS Med Chem Lett, 2025).
Converted amounts (≈) assume the structure as drawn.

Assays:
[1] = Unbound AUClast in female C57BL/6J mouse plasma at 30 mg/kg, po measured after 24 hrs by UPLC-MS/MS analysis; assay type: ADME, organism-based; conditions: in vivo
Bile salt export pump [2] = target: T1, Bile salt export pump (Homo sapiens, UniProt O95342); assay: Inhibition of BSEP in cryopreserved sandwich-cultured human hepatocytes by measuring reduction in TCA biliary clearance using taurocholic acid as substrate; assay type: cell-based, Hepatocyte
[3] = Unbound Cmax in female C57BL/6J mouse plasma at 30 mg/kg, po measured after 24 hrs by UPLC-MS/MS analysis; assay type: ADME, organism-based; conditions: in vivo
[4] = Half life in female C57BL/6J mouse at 2 mg/kg, iv measured after 24 hrs by UPLC-MS/MS analysis; assay type: ADME, organism-based; conditions: in vivo
[5] = Total Cmax in female C57BL/6J mouse lung at 30 mg/kg, po measured after 24 hrs by UPLC-MS/MS analysis; assay type: ADME, organism-based
[6] = Unbound Cmax in female C57BL/6J mouse lung at 30 mg/kg, po measured after 24 hrs by UPLC-MS/MS analysis; assay type: ADME, organism-based; conditions: in vivo
[7] = Clearance in female C57BL/6J mouse at 2 mg/kg, iv measured after 24 hrs by UPLC-MS/MS analysis; assay type: ADME, organism-based; conditions: in vivo
[8] = Volume of distribution at steady state in female C57BL/6J mouse at 2 mg/kg, iv measured after 24 hrs by UPLC-MS/MS analysis; assay type: ADME, organism-based; conditions: in vivo, read-out: Vdss
[9] = Tlast in female C57BL/6J mouse lung at 30 mg/kg, po measured after 24 hrs by UPLC-MS/MS analysis; assay type: ADME, organism-based; conditions: in vivo
[10] = Total AUClast in female C57BL/6J mouse lung at 30 mg/kg, po measured after 24 hrs by UPLC-MS/MS analysis; assay type: ADME, organism-based; conditions: in vivo
[11] = Lipophilicity, logD of compound at pH 7.4 by chromatographic hydrophobicity index method; assay type: physicochemical; conditions: buffer
[12] = Unbound AUClast in female C57BL/6J mouse lung at 30 mg/kg, po measured after 24 hrs by UPLC-MS/MS analysis; assay type: ADME, organism-based; conditions: in vivo
[13] = Total AUClast in female C57BL/6J mouse plasma at 30 mg/kg, po measured after 24 hrs by UPLC-MS/MS analysis; assay type: ADME, organism-based; conditions: in vivo
[14] = target: Lysophosphatidic acid receptor 1 (Mus musculus, UniProt P61793); assay: Antagonist activity at mouse LPA1 transfected in human HeLa cells incubated for 30 mins by FLIPR-based calcium mobilization assay; assay type: cell-based
[15] = Total Cmax in female C57BL/6J mouse plasma at 30 mg/kg, po measured after 24 hrs by UPLC-MS/MS analysis; assay type: ADME, organism-based
[16] = Oral bioavailability in female C57BL/6J mouse at 2 mg/kg, iv measured after 24 hrs by UPLC-MS/MS analysis; assay type: ADME, organism-based; conditions: in vivo
[17] = Tlast in female C57BL/6J mouse plasma at 30 mg/kg, po measured after 24 hrs by UPLC-MS/MS analysis; assay type: ADME, organism-based; conditions: in vivo
[18] = Metabolic stability in female C57BL/6J mouse liver microsomes assessed as intrinsic clearance measured per mg of protein at 0.5 uM measured upto 45 mins in presence of NADPH regenerating system by HPLC-MS/MS analysis; assay type: ADME, Microsome; conditions: read-out: CLH
BSEP = BSEP (Homo sapiens, UniProt O95342); assay: (§1) Inhibition of BSEP in cryopreserved sandwich-cultured human hepatocytes by measuring reduction in TCA biliary clearance using taurocholic acid as substrate at 50 uM relative to control; assay type: cell-based, Hepatocyte; conditions: cryopreserved sandwich-cultured hepatocytes, probe taurocholic acid
[19] = Metabolic stability in human liver microsomes assessed as intrinsic clearance measured per mg of protein at 0.5 uM measured upto 45 mins in presence of NADPH regenerating system by HPLC-MS/MS analysis; assay type: ADME, Microsome; conditions: read-out: CLH
[20] = Aqueous solubility of the compound at pH 7.4; assay type: physicochemical; conditions: buffer
Mus musculus = assay: Inhibition of LPA-stimulated histamine release in male CD1 mouse plasma assessed as effective dose administered as po dose pretreated for 30 mins followed by LPA addition measured after 2 mins by enzyme immunoassay; assay type: functional; conditions: 32 min
Bile salt export pump [21] = target: T1, Bile salt export pump; assay: as §1; assay type: cell-based, Hepatocyte; conditions: hepatocytes, 50 µM

T1 sequence (O95342 whole entry): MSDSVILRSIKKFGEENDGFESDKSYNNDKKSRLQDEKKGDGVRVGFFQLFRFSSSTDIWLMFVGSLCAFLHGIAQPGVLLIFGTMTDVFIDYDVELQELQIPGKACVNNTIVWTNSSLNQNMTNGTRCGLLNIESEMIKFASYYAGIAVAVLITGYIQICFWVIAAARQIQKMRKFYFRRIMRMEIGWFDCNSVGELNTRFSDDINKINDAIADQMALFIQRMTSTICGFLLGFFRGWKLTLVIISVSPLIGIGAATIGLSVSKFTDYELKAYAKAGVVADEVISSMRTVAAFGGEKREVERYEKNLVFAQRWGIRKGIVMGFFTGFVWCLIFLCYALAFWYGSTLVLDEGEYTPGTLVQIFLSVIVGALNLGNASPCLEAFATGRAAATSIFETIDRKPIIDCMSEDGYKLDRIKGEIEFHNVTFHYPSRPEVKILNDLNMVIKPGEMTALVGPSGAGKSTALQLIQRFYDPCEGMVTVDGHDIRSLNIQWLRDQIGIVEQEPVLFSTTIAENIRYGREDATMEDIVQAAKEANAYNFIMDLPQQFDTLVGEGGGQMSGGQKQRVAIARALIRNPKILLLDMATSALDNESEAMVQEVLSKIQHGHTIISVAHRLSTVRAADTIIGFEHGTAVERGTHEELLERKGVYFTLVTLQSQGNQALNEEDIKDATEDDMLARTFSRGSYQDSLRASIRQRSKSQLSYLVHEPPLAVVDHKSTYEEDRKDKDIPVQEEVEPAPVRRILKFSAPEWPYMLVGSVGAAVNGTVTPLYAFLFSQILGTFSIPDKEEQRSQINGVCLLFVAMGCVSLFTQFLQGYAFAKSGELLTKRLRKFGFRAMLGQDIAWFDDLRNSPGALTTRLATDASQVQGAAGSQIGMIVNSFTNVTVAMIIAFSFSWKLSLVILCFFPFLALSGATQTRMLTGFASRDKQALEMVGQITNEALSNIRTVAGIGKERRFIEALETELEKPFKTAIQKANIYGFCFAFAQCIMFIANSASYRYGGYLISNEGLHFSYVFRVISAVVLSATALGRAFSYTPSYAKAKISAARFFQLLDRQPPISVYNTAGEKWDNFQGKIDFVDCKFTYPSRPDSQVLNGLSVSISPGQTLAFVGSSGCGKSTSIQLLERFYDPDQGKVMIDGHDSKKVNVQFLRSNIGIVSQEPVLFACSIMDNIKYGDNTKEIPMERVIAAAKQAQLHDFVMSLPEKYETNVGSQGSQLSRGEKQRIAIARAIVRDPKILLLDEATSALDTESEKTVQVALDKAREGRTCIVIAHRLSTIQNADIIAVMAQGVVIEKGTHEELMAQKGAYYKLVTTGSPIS
Chain of BSEP (O95342 whole entry): as above
Chain of Lysophosphatidic acid receptor 1 (P61793 whole entry): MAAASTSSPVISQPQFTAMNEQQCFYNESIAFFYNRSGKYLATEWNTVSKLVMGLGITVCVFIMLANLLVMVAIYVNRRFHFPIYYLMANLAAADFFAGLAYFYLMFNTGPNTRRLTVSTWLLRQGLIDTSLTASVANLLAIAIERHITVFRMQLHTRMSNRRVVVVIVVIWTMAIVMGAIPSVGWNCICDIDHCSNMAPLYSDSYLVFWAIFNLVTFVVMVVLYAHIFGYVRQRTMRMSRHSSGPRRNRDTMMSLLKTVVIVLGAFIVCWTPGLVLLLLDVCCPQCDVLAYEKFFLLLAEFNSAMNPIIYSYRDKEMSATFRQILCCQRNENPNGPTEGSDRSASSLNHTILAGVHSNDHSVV

SMILES | chromatographic logD [11] | microsomal CLint at 0.5 µM [18] [µL/min/mg] | inhibition at 50 µM (BSEP) [%] | microsomal CLint at 0.5 µM [19] [µL/min/mg] | solubility [20] [µM] | inhibition (INH) (Bile salt export pump [21]) | other results
Cc1nc(-c2cnn(C)c2NC(=O)O[C@H](C)c2ccccc2Cl)ccc1NC(=O)[C@H]1CCCC[C@@H]1C(=O)O | 1.12 | < 2 | 28 | 7 | 295 (≈ 159 µg/mL) |  | fAUClast [1]: 2621 h/ng/mL; IC50 (Bile salt export pump [2]): > 100000 nM; fCmax [3]: 1758 ng/mL; half-life [4]: 2.48 h; Cmax [5]: 7950 ng/mL; fCmax [6]: 498 ng/mL; clearance [7]: 2.99 mL/min/kg; Vd [8]: 0.35 L/kg; Tlast [9]: 8 h; AUClast [10]: 17100 h/ng/mL; fAUClast [12]: 1071 h/ng/mL; AUClast [13]: 80800 h/ng/mL; IC50 [14]: 25.1 nM; Cmax [15]: 54200 ng/mL; bioavailability [16]: 49%; Tlast [17]: 8 h
Cc1nc(-c2onc(C)c2CNC(=O)O[C@H](C)c2ccccc2Cl)ccc1NC(=O)[C@H]1CCCC[C@@H]1C(=O)O | 1.69 | 11.8 | 82 | 7 | 525 (≈ 292 µg/mL) |  | 
Cc1noc(-c2ccc(NC(=O)[C@H]3CCCC[C@@H]3C(=O)O)cn2)c1NC(=O)O[C@H](C)c1ccccc1Cl | 1.52 | 4 | 50 | 6.3 | 458 (≈ 242 µg/mL) |  | fAUClast [1]: 1249 h/ng/mL; ED50 (Mus musculus): 0.1 mg/kg; IC50 (Bile salt export pump [2]): 50100 nM; fCmax [3]: 749 ng/mL; half-life [4]: 0.69 h; Cmax [5]: 4230 ng/mL; fCmax [6]: 139 ng/mL; clearance [7]: 6.96 mL/min/kg; Vd [8]: 0.24 L/kg; Tlast [9]: 8 h; AUClast [10]: 8000 h/ng/mL; fAUClast [12]: 262 h/ng/mL; AUClast [13]: 44200 h/ng/mL; IC50 [14]: 31.6 nM; Cmax [15]: 26500 ng/mL; bioavailability [16]: 66%; Tlast [17]: 24 h
CCC[C@@H](C)OC(=O)Nc1c(C)noc1-c1ccc(NC(=O)[C@H]2CCCC[C@@H]2C(=O)O)c(C)n1 | 1.36 | 3.7 | 48 | 3.1 | 519 (≈ 245 µg/mL) |  | 
Cc1nc(-c2onc(C)c2Nc2cncc(C3CC3)n2)ccc1NC(=O)[C@H]1CCCC[C@@H]1C(=O)O |  |  |  |  |  | Not_active | 
CCOc1cncc(Nc2c(C)noc2-c2ccc(NC(=O)[C@H]3CCCC[C@@H]3C(=O)O)c(C)n2)n1 |  |  |  |  |  | Not_active | 
Cc1nc(-c2onc(C)c2Nc2cncc(OC(C)C)n2)ccc1NC(=O)[C@H]1CCCC[C@@H]1C(=O)O | 0.86 | 11 | 18 | < 2 | 644 (≈ 318 µg/mL) |  | fAUClast [1]: 3105 h/ng/mL; IC50 (Bile salt export pump [2]): > 100000 nM; fCmax [3]: 1726 ng/mL; half-life [4]: 1.96 h; Cmax [5]: 10300 ng/mL; fCmax [6]: 1597 ng/mL; clearance [7]: 2.05 mL/min/kg; Vd [8]: 0.16 L/kg; Tlast [9]: 8 h; AUClast [10]: 24800 h/ng/mL; fAUClast [12]: 3846 h/ng/mL; AUClast [13]: 109000 h/ng/mL; IC50 [14]: 39.8 nM; Cmax [15]: 60600 ng/mL; bioavailability [16]: 45%; Tlast [17]: 8 h
Cc1noc(-c2ccc(NC(=O)[C@@H]3CCCC[C@H]3C(=O)O)cc2)c1NC(=O)O[C@H](C)c1ccccc1Cl |  |  | 66 |  |  |  | 
Cc1cc(NC(=O)[C@H]2CCCC[C@@H]2C(=O)O)c(C)nc1-c1onc(C)c1NC(=O)O[C@H](C)c1ccccc1Cl | 1.69 | 4 | 73 | < 2 | 509 (≈ 282 µg/mL) |  | 
Cc1nc(-c2onc(C)c2NC(=O)O[C@H](C)c2ccccn2)ccc1NC(=O)[C@H]1CCCC[C@@H]1C(=O)O |  | 6 | 0 | 0.3 |  |  | 
Cc1nc(-c2ncccc2NC(=O)O[C@H](C)c2ccccc2Cl)ccc1NC(=O)[C@H]1CCCC[C@@H]1C(=O)O |  |  |  |  |  | Not_active | 
Cc1noc(-c2ccc(NC(=O)[C@H]3CCCC[C@@H]3C(=O)O)c(F)n2)c1NC(=O)O[C@H](C)c1ccccc1Cl | 1.5 | 5.4 | 50 | 1 | 555 (≈ 302 µg/mL) |  | 
Cc1nc(-c2snc(C)c2NC(=O)O[C@H](C)c2ccccc2Cl)ccc1NC(=O)[C@H]1CCCC[C@@H]1C(=O)O | 1.55 | 7.6 | 64 | 7.6 | 503 (≈ 280 µg/mL) |  | 
Cc1nc(-c2onc(C)c2Nc2cncc(OC3CC3)n2)ccc1NC(=O)[C@H]1CCCC[C@@H]1C(=O)O |  |  |  |  |  | Not_active | 
CCNc1cncc(Nc2c(C)noc2-c2ccc(NC(=O)[C@H]3CCCC[C@@H]3C(=O)O)c(C)n2)n1 |  |  |  |  |  | Not_active | 
Cc1noc(-c2ccc(NC(=O)[C@H]3CCCC[C@@H]3C(=O)O)cc2)c1NC(=O)O[C@H](C)c1ccccc1Cl | 1.39 | 19.5 | 72 | 2.84 |  |  | 
Cc1noc(-c2ccc(NC(=O)C3CCCC(C(=O)O)C3)cc2)c1NC(=O)O[C@H](C)c1ccccc1Cl (single isomer, unassigned; diastereomer 1) |  |  |  |  |  | Not_active | 
